# Assay results published in patent publication US20040048262A1, “Methods for determining the bilogical effects of compounds on gene expression” (priority 2003, published 2004).
# Test system: PC12 cells
# Assay: Transcription factor DNA-binding activity profile, nuclear extracts of NGF-treated PC12 cells, random 16-mer library (FIG. 2)
# Assay type: cell-based
# Conditions: 200 ng/ml NGF-beta, 5 hr, vs untreated
# Excerpt: FIG. 2 is a bar graph showing the effects of nerve growth factor (NGF) treatment on transcription factor DNA-binding activities in PC12 cells. The identity of the specific transcription factors whose binding activity is being detected are listed on the X-axis. The level of DNA binding activity for each individual transcription factor is depicted as a percentage of the total number of DNA fragments sequenced from the “bound” fraction of the DNA library used in the binding reactions and containing the cognate site for that particular protein (shown as a numerical value on the Y-axis). The level of binding activities for all the proteins detected as a result of their cognate binding sites being found in the “bound” fraction of the DNA library constitutes the transcription factor activity profiles for PC12 cells and PC12 cells following NGF treatment. The profiles generated provide a useful indicator of the mechanism of action of the compound being used for the cell treatrment. For example, if the mechanism of action of NGF was to increase the expression of a particular cell surface receptor, then one would expect to see altered levels of binding activities for those transcription factors known to regulate the expression of the gene that encodes that particular receptor in the NGF-treated sample. If one did indeed see altered binding activity levels of factors known to regulate a particular receptor gene or set of genes, then one could immediately assay for those changes in gene expression as a result of inference from the transcription factor activity profile.
# In a specific example, PC12 cells were grown in high glucose DMEM containing 10% horse serum and 5% fetal calf serum. For differentiation, cells were transferred to serum-free medium containing N-2 Supplement (Life Technologies) and 200 ng/ml Nerve Growth Factor-beta (Sigma). Cells were harvested after 5 hr and nuclear extracts were prepared as described above. A positive response of the PC12 cells to NGF was monitored by EMSA of AP-1 activity.
# In this example, nuclear extracts were incubated with a random 16-mer library and the DNA present in specific protein/DNA complexes was isolated and sequenced. Known transcription factor binding sites present in the DNA sequences were counted as described in Example 1 and the data generated are presented in FIG. 2 in the same mainer as in Example 2. Thus, the bars indicate the percentage of DNA fragments containing selected cis sites that were isolated in binding reactions containing nuclear extracts from either untreated (white bars) or NGF-treated (black bars) PC12 cells. It can be seen that NGF-treatment leads to an increase in binding activity for AP 1, ATF, TCF11 (among others), while for example E2F and RFX1 activities are reduced after NGF treatment.
substance,measurement,value
NGF: Nerve Growth Factor-beta (Sigma),change in E2F activity after NGF treatment,reduced
same,change in RFX1 activity after NGF treatment,reduced
same,change in binding activity for AP 1 after NGF treatment,increase
same,change in binding activity for ATF after NGF treatment,increase
same,change in binding activity for TCF11 after NGF treatment,increase
